For data set [1] the following is noted: cited from earlier work.
The subject of data set [2] is hollow fiber-encapsulated M. tuberculosis H37Rv-lux.
Data set [3] can be described thus: Serum antibiotic concentrations in mice on medicated diet. To be noted: for Cmean: serum; for AUC: SKH1, mouse, in vivo.

Structures are written as SMILES. Where two headings read alike, the source gives them in different places. Marks after values point to notes of the source that are not given here.

For `NNC(=O)c1ccncc1` [Isoniazid, isoniazid], the AUC in data set [1] (Isoniazid, Humans (5 mg/kg), rapid acetylators) is 19.9 ± 6.1^a mg h/L; in data set [1] (human, in vivo, 5 mg/kg), 48.2 ± 1.5^b mg h/L; in data set [3] (0.02 % of diet) it was 18500 ± 5000 ng·h/mL. Moreover, the “activity against bacilli in the hollow fiber model in vivo” value in data set [2] is “somewhat effective”. For the same molecule, the Cmean in data set [3] (Isoniazid, SKH1 mice (0.02% diet)) amounted to 0.77 ± 0.21 mg/L.

Turning to `CO[C@H]1/C=C/O[C@@]2(C)Oc3c(C)c(O)c4c(O)c(c(/C=N/N5CCN(C)CC5)c(O)c4c3C2=O)NC(=O)/C(C)=C\C=C\[C@H](C)[C@H](O)[C@@H](C)[C@@H](O)[C@@H](C)[C@H](OC(C)=O)[C@@H]1C` [Rifampin, rifampin], in data set [1] (human, in vivo, 10 mg/kg), the AUC was 117.93 mg·h/L and the Cmax was 14910 ng/mL. In addition, in data set [2], the “activity against bacilli in the hollow fiber model in vivo” value is on record as “magnitude of its effect greater than that of isoniazid”. In addition, the “kill of hollow fiber-encapsulated bacilli” value in data set [2] (in vivo) is 3 log. The same molecule came in with a Cmean in data set [3] (Rifampin, SKH1 mice (0.05% diet)) of 3.09 ± 0.41 mg/L. For the same molecule, the AUC in data set [3] (0.05 % of diet) is 74200 ± 9800 ng·h/mL.

Usually AUC stands for concentration integrated over time. By Cmax is commonly meant the highest concentration seen after dosing.

These data come from patent US20060182685A1, “Hollow fiber technique for in vivo study of cell populations” (priority 2004, published 2006).
